Here are results for six compounds from US4997825A, “Synergistic treatment method” (Eli Lilly and Company, priority 1989, dated 1991).

Like-named read-outs stand apart in the source and are kept apart here. No end group written: not given here.

Assay [1] relates to growth hormone concentration. Conditions: large doses, normal men, measured fasting; cited from earlier work.
Assay [2] concerns Plasma GH. Put plainly: Plasma growth hormone in lambs during subcutaneous infusion of hGRF analog (serine at position 27), with or without estradiol implant. It counts as in vivo. Conditions: no hGRF (Control). Here is the method: This experiment was carried out substantially according to the scheme of Example 1. In this test, the GRF was a hGRF analog having serine in place of methionine at position 27; the GRF was prepared by recombinant methods. Four rates of hGRF were used, 0.75, 1.5 and 3.0 mg/day, and controls.
The hGRF was infused through a subcutaneous Silastic cannula using an IVAC model 630 pump (IVAC Corporation, San Diego). The hGRF was diluted in physiological saline to provide concentrations such that 48 ml/day of each infusate could be supplied to each animal.

Assay [3] has as its system Plasma GH. Put plainly: Plasma growth hormone in wethers during 5-day continuous infusion of hGRF (acid form) through a jugular cannula, with or without estradiol implant; radioimmunological analysis. It counts as in vivo. Conditions: no hGRF (Control), estradiol implant about 25 mcg/day. How it is done: Wethers weighing about 32 kg were confined in metabolism crates for about 7 days before the experiment began. […] Two days before the start of the treatment schedule, a Silastic (Dow Corning Corporation) cannula was inserted in each jugular vein of each wether. Four animals, two implanted and two unimplanted, were assigned to three GRF treatments, 1.5 mg/day, 0.33 mg/day and control. The GRF which was used was hGRF in the acid form, synthesized by solid phase synthetic methodology according to the general procedure of Merrifield et al., Biochemistry 21, 5020 (1982).
GRF was infused through one of the cannulae continuously for 5 days to the treated wethers, using a Harvard peristaltic pump. The GRF was diluted in physiological saline to a concentration such that the actual delivery rate was 0.5 ml of infusate per minute.
Six blood samples were collected from each wether each day, beginning 1 day before the start of infusion and continuing 1 day after the end of it. Two samples were obtained within 1 hour just before the beginning of each 1-hour ad libitum meal, and 1 sample was taken at the end of each meal. The animals received two 1-hour meals daily at 12 hour intervals. Additional blood samples were taken 1 hour before, just before, 10 minutes after and 60 minutes after the start of infusion. At the end of the infusion period, additional blood samples were obtained at 10, 20, 30 and 60 minutes after the termination of infusion.
The plasma was separated from the other components of the blood samples, and was analyzed for growth hormone by a standard radioimmunological procedure.
The table below reports the growth hormone levels in the animals, reported as means of all of the analyses in the stated time period. The data from animals which were implanted with estradiol are indicated by "+" in the column headed Estradiol.

Assay [4] concerns growth hormone. Conditions: rats, Rhesus monkeys, rabbits, sheep, cattle and chickens, as well as humans; cited from earlier work.
Assay [5] has as its system growth hormone. Conditions: steers, finishing diet with 10 mg/head/day; cited from earlier work.
For assay [6], the system named is growth hormone. Conditions: intravenously, normal men; cited from earlier work.

`CC/C(=C(/CC)c1ccc(O)cc1)c1ccc(O)cc1` [diethylstilbestrol]: the growth hormone concentration entry in assay [1] was “increased growth hormone concentration”.
For `C[C@]12CC[C@@H]3c4ccc(O)cc4CC[C@H]3[C@@H]1CC[C@@H]2O` [Estradiol, estradiol], in assay [2], the “Plasma GH, Infusion Period Day 1” value was 5.9 ng/mL; the “Plasma GH, Infusion Period Day 2” value was found to be 10.0 ng/mL; the “Plasma GH, Infusion Period Day 3” value worked out at 6.2 ng/mL; the “Plasma GH, Infusion Period Day 5” value was 8.8 ng/mL. Besides, in assay [2], the “Plasma GH, Posttreatment” value came out at 8.7 ng/mL and the “Plasma GH, Pretreatment” value was 11.6 ng/mL. In addition, in assay [3], the “Plasma GH, Infusion Period Day 1” value is 3.3 ng/mL; the “Plasma GH, Infusion Period Day 2” value is 4.3 ng/mL; the “Plasma GH, Infusion Period Day 3” value came out at 2.9 ng/mL; the “Plasma GH, Infusion Period Day 4” value was 5.2 ng/mL. For the same compound, the “Plasma GH, Infusion Period Day 5” value in assay [3] was found to be 4.2 ng/mL. In addition, the “Plasma GH, Posttreatment” value in assay [3] (day after infusion) turned out to be 2.4 ng/mL. Also, the “Plasma GH, Pretreatment” value in assay [3] (mean of analyses, day before infusion) amounted to 2.8 ng/mL.
Turning to “endogenous human GRF: GRF naturally produced by humans; peptide of 43 or 44 amino acids (YADAIFTNSYRKVLGQLSARKLLQDIMSRQQGESNQERGARARL; ends and bridges not checked; UniProt P01286 32-75, looked up)”, in assay [4], the “GRF activity across species” value is listed as “active”.
For `CC/C(=C(/CC)c1ccc(O)cc1)c1ccc(O)cc1` [stilbestrol], in assay [5], the growth hormone entry is “increased growth hormone”.
As for “hGRF40 acid: human GRF analog having 40 amino acids and a free acid terminal (YADAIFTNSYRKVLGQLSARKLLQDIMSRQQGESNQERGA-OH; UniProt P01286 32-71, looked up, fragment)”, the “GRF activity across species” value in assay [4] was “active”.
For `C#C[C@]1(O)CC[C@H]2[C@@H]3CCc4cc(O)ccc4[C@H]3CC[C@@]21C` [Ethinyl estradiol], in assay [6], the growth hormone result is listed as “significant increase in growth hormone in 5 of 6 patients”.
